# Measured values reported in the supplement of paper PMC4862054.
# Tests used:
# Conditions in all cases: incubation time: 72 h
# HCC1599 [1] = experiment: normalised response (% of control), CellTiter-Glo; higher = more viable cells (100 = DMSO, 0 = benzethonium chloride kill control)
# Summary of the method: (§1)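 CellTox Green fluorescence (485/520 nm) and, after 10 min at room temperature, CellTiter-Glo luminescence were read from breast cancer cell lines incubated 72 h in 384-well plates. Cells were seeded as 20 µl suspension onto compound at 5 concentrations in 10-fold steps over a 10,000-fold range chosen per compound. Each plate was normalised to 0.1 % DMSO (100) and a positive kill control (0). Values are normalised signals, one per concentration.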
# CAL-148 [2] = experiment: as above
# Summary of the method: as §1
# MDA-MB-231 [3] = experiment: as above
# Summary of the method: as §1
# MFM-223 [4] = experiment: as above
# Summary of the method: as §1
# HCC1937 [5] = experiment: as above
# Summary of the method: as §1
# MDA-MB-436 [6] = experiment: as above
# Summary of the method: as §1
# Hs578T [7] = experiment: as above
# Summary of the method: as §1
# CAL-85-1 [8] = experiment: as above
# Summary of the method: as §1
# BT-549 [9] = experiment: as above
# Summary of the method: as §1
# CAL-51 [10] = experiment: as above
# Summary of the method: as §1
# DU-4475 [11] = experiment: as above
# Summary of the method: as §1
# SK-BR-3 [12] = experiment: as above
# Summary of the method: as §1
# CAL-120 [13] = experiment: as above
# Summary of the method: as §1
# BT-474 [14] = experiment: as above
# Summary of the method: as §1
# MCF-10A = experiment: as above
# Summary of the method: as §1
# HDQ-P1 [15] = experiment: as above
# Summary of the method: as §1
# MDA-MB-468 [16] = experiment: as above
# Summary of the method: as §1
# HCC1143 [17] = experiment: as above
# Summary of the method: as §1
# MDA-MB-453 [18] = experiment: as above
# Summary of the method: as §1
# HCC1599 [19] = experiment: normalised viability (% of control), CellTiter-Blue; higher = more viable cells (100 = DMSO, 0 = benzethonium chloride kill control)
# Experimental: (§2)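 DSRT, CellTiter-Blue viability, 72 h incubation. Signal is normalised to DMSO and benzethonium chloride controls. Value is the normalised response at dose 1.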
# CAL-148 [20] = experiment: as above
# Experimental: as §2
# MDA-MB-231 [21] = experiment: as above
# Experimental: as §2
# MFM-223 [22] = experiment: as above
# Experimental: as §2
# HCC1937 [23] = experiment: as above
# Experimental: as §2
# MDA-MB-436 [24] = experiment: as above
# Experimental: as §2
# Hs578T [25] = experiment: as above
# Experimental: as §2
# CAL-85-1 [26] = experiment: as above
# Experimental: as §2
# BT-549 [27] = experiment: as above
# Experimental: as §2
# CAL-51 [28] = experiment: as above
# Experimental: as §2
# DU-4475 [29] = experiment: as above
# Experimental: as §2
# SK-BR-3 [30] = experiment: as above
# Experimental: as §2
# CAL-120 [31] = experiment: as above
# Experimental: as §2
# BT-474 [32] = experiment: as above
# Experimental: as §2
# HDQ-P1 [33] = experiment: as above
# Experimental: as §2
# MDA-MB-468 [34] = experiment: as above
# Experimental: as §2
# HCC1143 [35] = experiment: as above
# Experimental: as §2
# MDA-MB-453 [36] = experiment: as above
# Experimental: as §2
Structure (SMILES),normalised response (HCC1599 [1]) [%],normalised response (CAL-148 [2]) [%],normalised response (MDA-MB-231 [3]) [%],normalised response (MFM-223 [4]) [%],normalised response (HCC1937 [5]) [%],normalised response (MDA-MB-436 [6]) [%],normalised response (Hs578T [7]) [%],normalised response (CAL-85-1 [8]) [%],normalised response (BT-549 [9]) [%],normalised response (CAL-51 [10]) [%],normalised response (DU-4475 [11]) [%],normalised response (SK-BR-3 [12]) [%],normalised response (CAL-120 [13]) [%],normalised response (BT-474 [14]) [%],normalised response (MCF-10A) [%],normalised response (HDQ-P1 [15]) [%],normalised response (MDA-MB-468 [16]) [%],normalised response (HCC1143 [17]) [%],normalised response (MDA-MB-453 [18]) [%],normalised viability (HCC1599 [19]) [%],normalised viability (CAL-148 [20]) [%],normalised viability (MDA-MB-231 [21]) [%],normalised viability (MFM-223 [22]) [%],normalised viability (HCC1937 [23]) [%],normalised viability (MDA-MB-436 [24]) [%],normalised viability (Hs578T [25]) [%],normalised viability (CAL-85-1 [26]) [%],normalised viability (BT-549 [27]) [%],normalised viability (CAL-51 [28]) [%],normalised viability (DU-4475 [29]) [%],normalised viability (SK-BR-3 [30]) [%],normalised viability (CAL-120 [31]) [%],normalised viability (BT-474 [32]) [%],normalised viability (HDQ-P1 [33]) [%],normalised viability (MDA-MB-468 [34]) [%],normalised viability (HCC1143 [35]) [%],normalised viability (MDA-MB-453 [36]) [%]
Nc1nc(Cl)nc2c1ncn2[C@H]1C[C@H](O)[C@@H](CO)O1 [Cladribine] (0.1 nM),91.3,97.7,102,106,101,148,105,99.8,109,114,105,100,94.3,99.6,106,96.3,101,105,105,88.7,117,74.9,89.3,86.8,107,108,85.4,85.4,112,99.2,95.5,98.3,75.1,109,98.4,91.8,112
Nc1ccn([C@@H]2O[C@H](CO)[C@@H](O)[C@@H]2O)c(=O)n1 [Cytarabine] (1 nM),108,99.7,93.3,103,99.3,102,102,98.8,93.5,75.7,100,101,98.7,103,112,96.6,97.8,97.6,99.8,111,106,92.2,102,95.3,101,93.9,101,86.8,89.8,111,101,96.1,75.4,96.5,98.1,108,96.3
Cc1c2oc3c(C)ccc(C(=O)N[C@@H]4C(=O)N[C@H](C(C)C)C(=O)N5CCC[C@H]5C(=O)N(C)CC(=O)N(C)[C@@H](C(C)C)C(=O)O[C@@H]4C)c3nc-2c(C(=O)N[C@@H]2C(=O)N[C@H](C(C)C)C(=O)N3CCC[C@H]3C(=O)N(C)CC(=O)N(C)[C@@H](C(C)C)C(=O)O[C@@H]2C)c(N)c1=O [Dactinomycin] (0.1 nM),90.6,97.4,102,104,95.9,123,110,107,99.8,101,103,99,94.2,96,104,93.1,92.2,106,102,79.1,90.5,91.6,104,78.5,94.9,125,97.2,91.3,94,90.5,96,95.6,95.7,108,92.2,93.7,94.6
COc1cccc2c1C(=O)c1c(O)c3c(c(O)c1C2=O)C[C@@](O)(C(=O)CO)C[C@@H]3O[C@H]1C[C@H](N)[C@H](O)[C@H](C)O1 [Doxorubicin] (0.1 nM),119,103,105,104,101,101,101,105,105,99.3,104,107,100,107,98.8,102,103,102,120,82.8,97.8,96.8,95.6,86.4,112,110,84.6,95,102,102,90.3,86.9,79.6,98.5,104,91.2,102
